According to patent US20060084599A1, “Compositions, methods and kits relating to notch signaling” (Maine Medical Center, priority 2003, published 2006):

Experiments:
FGF1 transcript = assay: Nuclear run-on analysis of FGF1 transcription; type: cell-based, murine
Method: Approximately either 1×10^7 Swiss or NIH 3T3 cells were harvested and washed using ice-cold 50 mM sodium phosphate buffer, pH 7.0 containing 15 mM NaCl. Cell pellets were lysed in 4 ml of ice-cold 10 mM Tris-HCl, pH 7.5, containing 3 mM CaCl2, 3 mM MgCl2, 10 mM NaCl, and 0.5 % NP-40. The nuclear pellet was resuspended in glycerol storage buffer (50 mM Tris-HCl, pH 8.3 containing 40% glycerol, 5 mM MgCl2 and 0.1 mM EDTA), the nuclei were snap frozen, and stored in liquid nitrogen. For run-on transcription, 200 μl aliquots of the frozen nuclei were added to 200 μl of reaction buffer (10 mM Tris-HCl, pH 8.3 containing 5 mM MgCl2, 300 mM KCl, 5 mM DTT, 1 mM each of ATP, CTP, and GTP, 40 units of RNase inhibitor and 100 μCi of [^32P]UTP (800 Ci/mmol; Amersham), and incubated at 30° C. for 30 minutes. The mixture was treated with 100 units of RNase-free DNase I for 30 minutes at 30° C. and then incubated with 400 μl of 20 mM Tris-HCl, pH 7.5, containing 2% SDS, 10 mM EDTA, […] proteinase K for 30 minutes at 42° C. Following phenol/CHCl3 extraction, the labelled transcripts were precipitated with isopropanol and dissolved in 50 μl of 10 mM TES, pH 7.5, containing 10 mM EDTA and 0.2% SDS. Linearized plasmid constructs (0.4 μg/dot) containing either the fgf1 or gapdh cDNA were alkali denatured and immobilized onto a Hybond-N^+ membrane (Amersham). Hybridization was performed in 1 ml of ULTRA Hyb (Ambion), with 5×10^6 cpm of radiolabeled RNA and yeast RNA (10 μg/ml) for 18 hours with shaking at 50° C. Membranes were washed twice with washing buffer (2×SSC containing 0.1% SDS) at 50° C. and analyzed using a phosphoimager (Molecular Dynamics).

Delta1 = molecular target: T1, Delta1 (Homo sapiens, UniProt O00548); assay: Thrombin treatment of in vitro translated Delta1; type: biochemical
T1 construct: made in house; host or cells: cell-free in vitro translation (system not described for Delta1)
T1 sequence (O00548 18-723): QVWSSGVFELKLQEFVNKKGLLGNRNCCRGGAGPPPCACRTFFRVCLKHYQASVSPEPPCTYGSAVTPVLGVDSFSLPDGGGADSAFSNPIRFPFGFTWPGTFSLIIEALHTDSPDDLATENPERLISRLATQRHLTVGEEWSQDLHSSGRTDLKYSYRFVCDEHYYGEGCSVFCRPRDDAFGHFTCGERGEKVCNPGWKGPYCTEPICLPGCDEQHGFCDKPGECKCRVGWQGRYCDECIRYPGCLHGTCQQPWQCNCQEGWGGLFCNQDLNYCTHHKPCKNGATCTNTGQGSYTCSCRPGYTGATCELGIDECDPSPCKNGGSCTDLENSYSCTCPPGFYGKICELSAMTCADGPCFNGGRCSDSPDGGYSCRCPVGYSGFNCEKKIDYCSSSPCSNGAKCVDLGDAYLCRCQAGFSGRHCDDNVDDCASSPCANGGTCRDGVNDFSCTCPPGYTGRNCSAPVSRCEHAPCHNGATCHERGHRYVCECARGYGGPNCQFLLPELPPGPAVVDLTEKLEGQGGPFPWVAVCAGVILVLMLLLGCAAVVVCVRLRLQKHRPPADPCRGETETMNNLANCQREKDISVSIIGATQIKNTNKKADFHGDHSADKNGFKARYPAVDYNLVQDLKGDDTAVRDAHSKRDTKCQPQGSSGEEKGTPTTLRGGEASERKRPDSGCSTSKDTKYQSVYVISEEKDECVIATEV

PAR1 null cells = assay: FGF1 release from PAR1 null cells; type: cell-based, mouse; settings: 10 μg/ml α-thrombin, 5 and 60 minutes
Method: Murine NIH 3T3 (ATCC), Swiss 3T3 (ATCC), sJ1 NIH 3T3 cell transfectants were all disclosed elsewhere herein (e.g., Example 1), FGF1 NIH 3T3 transfectants (Jackson et al., 1992, Proc. Natl. Acad. Sci. U.S.A. 89:10691-10695) and PAR1 null mouse embryonic fibroblasts (a gift from Dr. S. Coughlin) were grown in Dulbecco's modified Eagle's medium (DMEM; Life Technologies) supplemented with 10% bovine calf serum (BCS; Hyclone) and 1× antibiotic/antimycotic (Life Technologies). All stable NIH 3T3 cell transfectant cultures were further supplemented with 0.4 g/L Geneticin (GIBCO). […]
FGF1R136K NIH 3T3 cell transfectants or adenovirally-transduced NIH 3T3 cells were washed with DMEM containing 5 units/ml of heparin (Sigma) and stimulated with either 10 μg/ml α-thrombin (a gift from Dr. J. Fenton) or 5 μM TRAP (Sigma) at 37° C. for different periods of time. […] Cell viability was assessed by measuring lactate dehydrogenase activity in the conditioned medium after filtration as disclosed previously elsewhere herein (published as Mandinova et al., 2003, J. Cell Sci. 116:2687-2696), and total cell lysates were obtained and processed for immunoblot analysis as described (Landriscina et al., 2001, J. Biol. Chem. 276:22544-22552). […]

[1] = system: NIH 3T3 stable transfectants; assay: FGF1 release in stable NIH 3T3 cell transfectants (Example 1); type: cell-based, murine; settings: sJ1 stable transfectants transduced with FGF1 adenovirus, 37° C.
Method: Adenovirus vector expressing lacZ, FGF1, caN1, dnN1, caN2 or dnN2 was prepared as described (Hardy et al., 1997, J. Virol. 71: 1842-1849) at a titer of approximately 10^12 viral particles/ml. For adenoviral transduction, NIH 3T3 stable transfectants were incubated in serum-free medium with approximately […] viral particles/cell in the presence of poly-D-lysine hydrobromide (Sigma) (5×10^3 molecules/viral particle) for two hours at 37° C., after which the adenovirus-containing media was removed and replaced with serum-containing medium (10% BCS) for an additional 24 hours. The transduced cells were harvested by trypsin digestion and seeded for the heat shock experiments as previously described (Jackson et al., 1992, Proc. Natl. Acad. Sci. USA 89: 10691-10695). After heat shock, the conditioned media from cells exposed to either 37° C. (normal conditions) or 42° C. (heat shock conditions) were treated with 0.1% DTT for 2 hours at 37° C., adsorbed to heparin-Sepharose and eluted from the column with 1.5 M NaCl. The eluants were resolved by 15% (w/v) SDS-PAGE and evaluated by FGF1 immunoblot analysis as described (Jackson et al., 1992, Proc. Natl. Acad. Sci. USA 89: 10691-10695).

FGF1.A promoter = FGF1.A promoter luciferase reporter; type: cell-based, murine; settings: sJ1 NIH 3T3 cell transfectants versus insert-less vector
Method: In order to confirm the sJ1-dependent function of the FGF1.A promoter, the corresponding 1.8 Kbp region (Madiai et al., 1999, J. Biol. Chem. 274:11937-11944) was cloned into a promoter-less firefly luciferase reporter vector and FGF1.A-driven firefly luciferase activity was evaluated in both insert-less vector and sJ1 NIH 3T3 cell transfectants.

| Substance | induction of FGF1 transcript (FGF1 transcript; 10 μg/ml α-thrombin or 5 μM TRAP) | time at which FGF1 mRNA reached a plateau (FGF1 transcript; NIH 3T3 and Swiss 3T3 cells) [h] | time at which FGF1 mRNA was initially detected (FGF1 transcript; NIH 3T3 and Swiss 3T3 cells) [min] | proteolytic modification of Delta1 translation product (Delta1) | export of FGF1R136K from PAR1 null cells (PAR1 null cells) | FGF1 release under normal growth conditions [1] | FGF1.A-driven promoter activity (FGF1.A promoter) |
| --- | --- | --- | --- | --- | --- | --- | --- |
| thrombin | able to induce the expression of the FGF1 transcript | 2 | 15 | unable to proteolytically modify the in vitro translation product of the Delta1 transcript | unable to induce the export of the FGF1R136K mutant | – | – |
| sJ1: Soluble Jagged1, amino acid residues about 1 to 1067 (SEQ ID NO:3) of full-length human Jagged1 | – | – | – | – | – | significant release of FGF1 at 37 °C | significant increase in the FGF1.A-driven promoter activity |
